# Measurements reported in patent publication US20220267352A1, “RAPAMYCIN ANALOGS AND USES THEREOF” (Anakuria Therapeutics, Inc., priority 2021, published 2022).
# What was measured:
# [1] = tested on: p-Akt 1/2/3 (Ser473) in MCF-7 cells; experiment: AlphaLISA Ultra pAKT assay; type: cell-based; conditions: Homo sapiens, 1.5 h; MCF7 cells, 90 min
# Procedure, shortened: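 MCF-7 cells (16,000˜20,000 per well in 36 μL medium) were seeded in Corning 3701 plates for 20˜24 hour, refreshed with new medium for 90 minutes, then given 12 μL of 4× compound (0.5% final DMSO). Cells were lysed with 2× lysis buffer, and lysate was analyzed by AlphaLISA Ultra pAKT using acceptor and donor beads, read on an EnSpire reader.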
# [2] = tested on: p-p70 S6 Kinase (Thr389) in MCF-7 cells; experiment: AlphaLISA Ultra pS6K1 assay; type: cell-based; conditions: Homo sapiens, 1.5 h; MCF7 cells, 90 min
# Procedure, shortened: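 MCF-7 cells seeded 20–24 h, given fresh medium 2 h, then treated with compounds 90 min (0.5% DMSO final). Cells lysed, lysates frozen at −80 °C, then Thr389-phosphorylated S6K1 detected by AlphaLISA Ultra with acceptor beads 2 h, then donor beads 2 h.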
# [3] = tested on: pS6K1 T389 and pAkt S473 in PC3 cells; experiment: Western blot based pS6K1 and pAKT assay at 24 and 48 hour timepoints; type: cell-based
# Procedure, shortened: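 PC3 cells (500,000/well) were treated with compound for 24 to 48 h, then lysed in 1% Triton buffer. Equal protein from Bradford-normalized lysates was analysed by Western blot for pS6K1 T389 and pAkt S473 with Li-Cor infrared detection.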
# mTORC1 over mTORC2 = mTORC1 over mTORC2 selectivity by comparing pS6K1 and pAKT IC50; type: cell-based; conditions: by comparing pS6K1 and pAKT IC50, 90 min
# Procedure, shortened: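 MCF-7 cells were treated with compounds (0.5% final DMSO) for 90 minutes in one protocol and 2 hours in the other, then lysed. Phospho-signal in lysates was read by bead-based donor/acceptor proximity assay. pS6K1 and pAKT IC50 values were compared to judge mTORC1 over mTORC2 selectivity, at 90 min and at 24 hrs.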
# PC3 cells = conditions: 1 or 24 hour treatment; cited from earlier work
# Lmna−/− mice = conditions: short-term treatment; cited from earlier work
# human adipocytes = tested on: human adipocytes; design: dose or concentration left out as unconfirmed; conditions: therapeutic concentration; cited from earlier work
IC50 [1] [µM],IC50 [2] [µM],SMILES,mTORC1 selective @ 24 hrs [3],mTORC1 selective @ 90 min (mTORC1 over mTORC2),Akt phosphorylation (S473) (PC3 cells),enhanced survival (Lmna−/− mice) [%],AKT (PKB) Ser473 phosphorylation (human adipocytes),glucose uptake (human adipocytes)
≥ 1,≥ 1,"CO[C@@H]1/C(C)=C/[C@@H](C)C(=O)C[C@@H]([C@H](C)C[C@@H]2CC[C@@H](O)[C@H](OC)C2)OC(=O)[C@@H]2CCCCN2C(=O)C(=O)[C@]2(O)O[C@@H](CC[C@H]2C)C[C@H](OCCOC2COC2)/C(C)=C/C=C/C=C/[C@@H](C)C[C@@H](C)C(=O)[C@@H]1OC [I-97, (1R,9S,12S,15R,16E,18R,19R,21R,23S,24E,26E,28E,30S,32S,35R)-1-hydroxy-12-[(1R)-2-[(1S,3R,4R)-4-hydroxy-3-methoxy-cyclohexyl]-1-methyl-ethyl]-18,19-dimethoxy-15,17,21,23,29,35-hexamethyl-30-[2-(oxetan-3-yloxy)ethoxy]-11,36-dioxa-4-azatricyclo[30.3.1.0^4,9]hexatriaconta-16,24,26,28-tetraene-2,3,10,14,20-pentone]",No,No,–,–,–,–
–,–,CO[C@H]1C[C@@H]2CC[C@@H](C)[C@@](O)(O2)C(=O)C(=O)N2CCCC[C@H]2C(=O)O[C@H]([C@H](C)C[C@@H]2CC[C@@H](O)[C@H](OC)C2)CC(=O)[C@H](C)/C=C(\C)[C@@H](O)[C@@H](OC)C(=O)[C@H](C)C[C@H](C)/C=C/C=C/C=C/1C [rapamycin],–,–,strongly decreased Akt phosphorylation,~50,reduced AKT (PKB) Ser473 phosphorylation,reduced glucose uptake
